Test results reported in patent US12404241B2 (Celgene Corporation, priority 2018, dated 2025).

Molecular target: T1, AR (Homo sapiens, UniProt P10275)
T1 construct: endogenous in cells; host or cells: VCaP cells
T1 sequence (P10275 1-920): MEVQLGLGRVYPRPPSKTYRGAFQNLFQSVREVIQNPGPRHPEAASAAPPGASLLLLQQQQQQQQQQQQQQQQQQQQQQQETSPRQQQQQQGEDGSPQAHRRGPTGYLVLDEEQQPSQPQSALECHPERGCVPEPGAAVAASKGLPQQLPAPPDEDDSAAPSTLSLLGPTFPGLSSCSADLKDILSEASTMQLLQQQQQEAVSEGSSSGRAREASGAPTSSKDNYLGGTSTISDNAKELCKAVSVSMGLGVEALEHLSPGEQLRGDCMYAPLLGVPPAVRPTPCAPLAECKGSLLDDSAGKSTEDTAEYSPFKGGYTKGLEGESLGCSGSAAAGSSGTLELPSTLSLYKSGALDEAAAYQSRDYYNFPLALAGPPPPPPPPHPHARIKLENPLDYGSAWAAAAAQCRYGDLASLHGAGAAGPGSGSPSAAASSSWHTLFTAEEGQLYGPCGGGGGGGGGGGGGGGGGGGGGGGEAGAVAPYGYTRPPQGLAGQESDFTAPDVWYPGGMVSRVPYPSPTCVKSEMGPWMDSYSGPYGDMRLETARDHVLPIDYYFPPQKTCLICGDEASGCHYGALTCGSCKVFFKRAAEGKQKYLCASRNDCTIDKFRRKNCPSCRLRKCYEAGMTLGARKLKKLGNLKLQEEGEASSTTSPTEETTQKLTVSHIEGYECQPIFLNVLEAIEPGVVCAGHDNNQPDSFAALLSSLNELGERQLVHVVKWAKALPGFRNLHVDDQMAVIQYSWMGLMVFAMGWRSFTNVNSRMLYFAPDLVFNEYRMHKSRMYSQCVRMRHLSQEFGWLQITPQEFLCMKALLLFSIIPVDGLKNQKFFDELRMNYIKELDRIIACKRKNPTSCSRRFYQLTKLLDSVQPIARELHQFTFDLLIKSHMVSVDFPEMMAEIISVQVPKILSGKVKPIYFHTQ
Assay: VCAP AR Degradation Assay
Format: cell-based
Conditions: for Y (AR degradation efficiency, % of DMSO control): class symbols *; for DC50: class symbols A-C, read-out: DC50
How it was run: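 AR protein in lysates quantified by sandwich ELISA after 24 h exposure of VCaP cells at 37 °C to 10 concentrations (1:3 steps, 5 μM top, final). Four-parameter logistic fit of percent-of-DMSO levels gave DC50 (50% degradation), EC50 and minimal AR level Y.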

Compound | Y (AR degradation efficiency, % of DMSO control) | DC50
C[C@@H]1CN(CCOc2ccc(N3C(=S)N(c4ccc(C#N)c(C(F)(F)F)c4)C(=O)C3(C)C)cc2C2CC2)C[C@H](C)N1CC(=O)Nc1cccc(NC2CCC(=O)NC2=O)c1 (stereo partly drawn) [Example 204, 2-((2S,6R)-4-(2-(4-(3-(4-cyano-3-(trifluoromethyl)phenyl)-5,5-dimethyl-4-oxo-2-thioxoimidazolidin-1-yl)-2-cyclopropylphenoxy)ethyl)-2,6-dimethylpiperazin-1-yl)-N-(3-(2,6-dioxopiperidin-3-ylamino)phenyl)acetamide] | * (0<Y<=25%) | < 0.1 µM
C[C@@H]1CN(CC(=O)Nc2cccc(NC3CCC(=O)NC3=O)c2)[C@H](C)CN1CCOc1ccc(N2C(=S)N(c3ccc(C#N)c(Cl)c3)C(=O)C2(C)C)cc1C1CC1 (stereo partly drawn) [Example 205, 2-((2R,5R)-4-(2-(4-(3-(3-chloro-4-cyanophenyl)-5,5-dimethyl-4-oxo-2-thioxoimidazolidin-1-yl)-2-cyclopropylphenoxy)ethyl)-2,5-dimethylpiperazin-1-yl)-N-(3-(2,6-dioxopiperidin-3-ylamino)phenyl)acetamide] | * (0<Y<=25%) | < 0.1 µM
C[C@@H]1CN(CCOc2ccc(N3C(=S)N(c4ccc(C#N)c(Cl)c4)C(=O)C3(C)C)cc2C2CC2)C[C@H](C)N1CC(=O)Nc1cccc(NC2CCC(=O)NC2=O)c1 (stereo partly drawn) [Example 206, 2-((2S,6R)-4-(2-(4-(3-(3-chloro-4-cyanophenyl)-5,5-dimethyl-4-oxo-2-thioxoimidazolidin-1-yl)-2-cyclopropylphenoxy)ethyl)-2,6-dimethylpiperazin-1-yl)-N-(3-(2,6-dioxopiperidin-3-ylamino)phenyl)acetamide] | * (0<Y<=25%) | < 0.1 µM
CC(C)c1cc(N2C(=S)N(c3ccc(C#N)c(Cl)c3)C(=O)C2(C)C)ccc1OCCN1C[C@@H](C)N(CC(=O)Nc2cccc(NC3CCC(=O)NC3=O)c2)C[C@H]1C (stereo partly drawn) [Example 207, 2-((2R,5R)-4-(2-(4-(3-(3-chloro-4-cyanophenyl)-5,5-dimethyl-4-oxo-2-thioxoimidazolidin-1-yl)-2-isopropylphenoxy)ethyl)-2,5-dimethylpiperazin-1-yl)-N-(3-(2,6-dioxopiperidin-3-ylamino)phenyl)acetamide] | ** (25%<Y<=35%) | 0.1 to 0.5 µM
CC(C)c1cc(N2C(=S)N(c3ccc(C#N)c(C(F)(F)F)c3)C(=O)C2(C)C)ccc1OCCN1C[C@@H](C)N(CC(=O)Nc2cc(Cl)cc(NC3CCC(=O)NC3=O)c2)[C@@H](C)C1 (stereo partly drawn) [Example 208, N-(3-chloro-5-(2,6-dioxopiperidin-3-ylamino)phenyl)-2-((2S,6R)-4-(2-(4-(3-(4-cyano-3-(trifluoromethyl)phenyl)-5,5-dimethyl-4-oxo-2-thioxoimidazolidin-1-yl)-2-isopropylphenoxy)ethyl)-2,6-dimethylpiperazin-1-yl)acetamide] | * (0<Y<=25%) | 0.1 to 0.5 µM
CC(C)c1cc(N2C(=S)N(c3cnc(C#N)c(C(F)(F)F)c3)C(=O)C23CCC3)ccc1OCCN1C[C@@H](C)N(CC(=O)Nc2cc(NC3CCC(=O)NC3=O)ccc2F)[C@@H](C)C1 (stereo partly drawn) [Example 209, 2-((2S,6R)-4-(2-(4-(7-(6-cyano-5-(trifluoromethyl)pyridin-3-yl)-8-oxo-6-thioxo-5,7-diazaspiro[3.4]octan-5-yl)-2-isopropylphenoxy)ethyl)-2,6-dimethylpiperazin-1-yl)-N-(5-(2,6-dioxopiperidin-3-ylamino)-2-fluorophenyl)acetamide] | ** (25%<Y<=35%) | 0.1 to 0.5 µM
CC(C)c1cc(N2C(=S)N(c3cnc(C#N)c(C(F)(F)F)c3)C(=O)C23CCC3)ccc1OCCN1C[C@@H](C)N(CC(=O)Nc2cc(C#N)cc(NC3CCC(=O)NC3=O)c2)[C@@H](C)C1 (stereo partly drawn) [Example 210, N-(3-cyano-5-(2,6-dioxopiperidin-3-ylamino)phenyl)-2-((2S,6R)-4-(2-(4-(7-(6-cyano-5-(trifluoromethyl)pyridin-3-yl)-8-oxo-6-thioxo-5,7-diazaspiro[3.4]octan-5-yl)-2-isopropylphenoxy)ethyl)-2,6-dimethylpiperazin-1-yl)acetamide] | * (0<Y<=25%) | < 0.1 µM
CC(C)c1cc(N2C(=S)N(c3cnc(C#N)c(C(F)(F)F)c3)C(=O)C23CCC3)ccc1OCCN1C[C@@H](C)N(CC(=O)Nc2cc(F)cc(NC3CCC(=O)NC3=O)c2)[C@@H](C)C1 (stereo partly drawn) [Example 211, 2-((2S,6R)-4-(2-(4-(7-(6-cyano-5-(trifluoromethyl)pyridin-3-yl)-8-oxo-6-thioxo-5,7-diazaspiro[3.4]octan-5-yl)-2-isopropylphenoxy)ethyl)-2,6-dimethylpiperazin-1-yl)-N-(3-(2,6-dioxopiperidin-3-ylamino)-5-fluorophenyl)acetamide] | * (0<Y<=25%) | < 0.1 µM
C[C@@H]1CN(CCOc2ccc(N3C(=S)N(c4cnc(C#N)c(C(F)(F)F)c4)C(=O)C34CCC4)cc2C2CC2)C[C@H](C)N1CC(=O)Nc1cc(C#N)cc(NC2CCC(=O)NC2=O)c1 (stereo partly drawn) [Example 212, N-(3-cyano-5-(2,6-dioxopiperidin-3-ylamino)phenyl)-2-((2S,6R)-4-(2-(4-(7-(6-cyano-5-(trifluoromethyl)pyridin-3-yl)-8-oxo-6-thioxo-5,7-diazaspiro[3.4]octan-5-yl)-2-cyclopropylphenoxy)ethyl)-2,6-dimethylpiperazin-1-yl)acetamide] | * (0<Y<=25%) | < 0.1 µM
CC(C)c1cc(N2C(=S)N(c3ccc(C#N)c(C(F)(F)F)c3)C(=O)C2(C)C)ccc1OCCN1C[C@@H](C)N(CC(=O)Nc2cc(F)cc(NC3CCC(=O)NC3=O)c2)[C@@H](C)C1 (stereo partly drawn) [Example 213, 2-((2S,6R)-4-(2-(4-(3-(4-cyano-3-(trifluoromethyl)phenyl)-5,5-dimethyl-4-oxo-2-thioxoimidazolidin-1-yl)-2-isopropylphenoxy)ethyl)-2,6-dimethylpiperazin-1-yl)-N-(3-(2,6-dioxopiperidin-3-ylamino)-5-fluorophenyl)acetamide] | * (0<Y<=25%) | < 0.1 µM
CC(C)c1cc(N2C(=S)N(c3ccc(C#N)c(C(F)(F)F)c3)C(=O)C2(C)C)cnc1OCCN1C[C@@H](C)N(CC(=O)Nc2cc(Cl)cc(NC3CCC(=O)NC3=O)c2)C[C@H]1C (stereo partly drawn) [Example 214, N-(3-chloro-5-(2,6-dioxopiperidin-3-ylamino)phenyl)-2-((2R,5R)-4-(2-(5-(3-(4-cyano-3-(trifluoromethyl)phenyl)-5,5-dimethyl-4-oxo-2-thioxoimidazolidin-1-yl)-3-isopropylpyridin-2-yloxy)ethyl)-2,5-dimethylpiperazin-1-yl)acetamide] | ** (25%<Y<=35%) | 0.1 to 0.5 µM
C[C@@H]1CN(CCOc2ccc(N3C(=S)N(c4cnc(C#N)c(C(F)(F)F)c4)C(=O)C34CCC4)cc2C2CC2)C[C@H](C)N1CC(=O)Nc1cc(Cl)cc(NC2CCC(=O)NC2=O)c1 (stereo partly drawn) [Example 215, N-(3-chloro-5-(2,6-dioxopiperidin-3-ylamino)phenyl)-2-((2S,6R)-4-(2-(4-(7-(6-cyano-5-(trifluoromethyl)pyridin-3-yl)-8-oxo-6-thioxo-5,7-diazaspiro[3.4]octan-5-yl)-2-cyclopropylphenoxy)ethyl)-2,6-dimethylpiperazin-1-yl)acetamide] | * (0<Y<=25%) | < 0.1 µM
CCc1cc(N2C(=S)N(c3ccc(C#N)c(C(F)(F)F)c3)C(=O)C2(C)C)cnc1OCCN1C[C@@H](C)N(CC(=O)Nc2cccc(NC3CCC(=O)NC3=O)c2)[C@@H](C)C1 (stereo partly drawn) [Example 216, 2-((2R,6S)-4-(2-(5-(3-(4-cyano-3-(trifluoromethyl)phenyl)-5,5-dimethyl-4-oxo-2-thioxoimidazolidin-1-yl)-3-ethylpyridin-2-yloxy)ethyl)-2,6-dimethylpiperazin-1-yl)-N-(3-(2,6-dioxopiperidin-3-ylamino)phenyl)acetamide] | ** (25%<Y<=35%) | < 0.1 µM
CC(C)c1cc(N2C(=S)N(c3ccc(C#N)c(C(F)(F)F)c3)C(=O)C2(C)C)ccc1OCCN1C[C@@H](C)N(CC(=O)Nc2cc(NC3CCC(=O)NC3=O)ccc2F)[C@@H](C)C1 (stereo partly drawn) [Example 217, 2-((2S,6R)-4-(2-(4-(3-(4-cyano-3-(trifluoromethyl)phenyl)-5,5-dimethyl-4-oxo-2-thioxoimidazolidin-1-yl)-2-isopropylphenoxy)ethyl)-2,6-dimethylpiperazin-1-yl)-N-(5-(2,6-dioxopiperidin-3-ylamino)-2-fluorophenyl)acetamide] | * (0<Y<=25%) | 0.5 to 1 µM
